# Test results taken from PubChem BioAssay (NCI).
#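 Protocol summary: plate cells (96-well), add compound at 5 concentrations, incubate 48 h, interpolate endpoints linearly. GI50 = concentration required for 50% inhibition of growth. TGI marks complete inhibition of growth.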
# Tests used:
# Assay in all cases: growth of human tumour cells (NCI), 48 h
# 786-0 renal = tested on: 786-0 renal
# A498 renal = tested on: A498 renal
# A549 NSCLC = tested on: A549 NSCLC
# ACHN renal = tested on: ACHN renal
# BT-549 breast = tested on: BT-549 breast
# CAKI-1 renal = tested on: CAKI-1 renal
# CCRF-CEM leukemia = tested on: CCRF-CEM leukemia
# COLO 205 colon = tested on: COLO 205 colon
# DU-145 prostate = tested on: DU-145 prostate
# EKVX NSCLC = tested on: EKVX NSCLC
# HCC-2998 colon = tested on: HCC-2998 colon
# HCT-116 colon = tested on: HCT-116 colon
# HCT-15 colon = tested on: HCT-15 colon
# HOP-62 NSCLC = tested on: HOP-62 NSCLC
# HOP-92 NSCLC = tested on: HOP-92 NSCLC
# HS 578T breast = tested on: HS 578T breast
# IGROV1 ovarian = tested on: IGROV1 ovarian
# K-562 leukemia = tested on: K-562 leukemia
# KM12 colon = tested on: KM12 colon
# LOX IMVI melanoma = tested on: LOX IMVI melanoma
# M14 melanoma = tested on: M14 melanoma
# MCF7 breast = tested on: MCF7 breast
# MDA-MB-231 breast = tested on: MDA-MB-231 breast
# MDA-MB-435 = tested on: MDA-MB-435
# NCI-H226 lung = tested on: NCI-H226 lung
# NCI-H23 lung = tested on: NCI-H23 lung
# NCI-H460 lung = tested on: NCI-H460 lung
# NCI/ADR-RES ovarian = tested on: NCI/ADR-RES ovarian
# OVCAR-3 ovarian = tested on: OVCAR-3 ovarian
# OVCAR-4 ovarian = tested on: OVCAR-4 ovarian
# OVCAR-5 ovarian = tested on: OVCAR-5 ovarian
# OVCAR-8 ovarian = tested on: OVCAR-8 ovarian
# PC-3 prostate = tested on: PC-3 prostate
# RXF 393 renal = tested on: RXF 393 renal
# SF-268 CNS = tested on: SF-268 CNS
# SF-539 CNS = tested on: SF-539 CNS
# SK-MEL-28 melanoma = tested on: SK-MEL-28 melanoma
# SK-MEL-5 melanoma = tested on: SK-MEL-5 melanoma
# SK-OV-3 ovarian = tested on: SK-OV-3 ovarian
# SN12C renal = tested on: SN12C renal
# SNB-19 CNS = tested on: SNB-19 CNS
# SNB-75 CNS = tested on: SNB-75 CNS
# SW-620 colon = tested on: SW-620 colon
# T-47D breast = tested on: T-47D breast
# TK-10 renal = tested on: TK-10 renal
# U251 CNS = tested on: U251 CNS
# UACC-257 melanoma = tested on: UACC-257 melanoma
# UACC-62 melanoma = tested on: UACC-62 melanoma
# UO-31 renal = tested on: UO-31 renal
smiles,measurement,setting,value
COc1cc(-c2nn(-c3ccc(NC(=O)Nc4ccc(Cl)c(C(F)(F)F)c4)cc3)cc2-c2ccncc2)ccc1Cl,GI50,786-0 renal,1.8 µM
same,TGI,786-0 renal,4.27 µM
same,GI50,A498 renal,1.41 µM
same,TGI,A498 renal,3.54 µM
same,GI50,A549 NSCLC,2.66 µM
same,TGI,A549 NSCLC,11.4 µM
same,GI50,ACHN renal,2.02 µM
same,TGI,ACHN renal,9.71 µM
same,GI50,BT-549 breast,2.01 µM
same,TGI,BT-549 breast,4.57 µM
same,GI50,CAKI-1 renal,1.29 µM
same,TGI,CAKI-1 renal,3.54 µM
same,GI50,CCRF-CEM leukemia,1.42 µM
same,TGI,CCRF-CEM leukemia,7.01 µM
same,GI50,COLO 205 colon,1.67 µM
same,TGI,COLO 205 colon,3.29 µM
same,GI50,DU-145 prostate,2.47 µM
same,TGI,DU-145 prostate,7.52 µM
same,GI50,EKVX NSCLC,1.1 µM
same,TGI,EKVX NSCLC,3.95 µM
same,GI50,HCC-2998 colon,1.64 µM
same,TGI,HCC-2998 colon,3.1 µM
same,GI50,HCT-116 colon,1.14 µM
same,TGI,HCT-116 colon,2.53 µM
same,GI50,HCT-15 colon,1.44 µM
same,TGI,HCT-15 colon,3.22 µM
same,GI50,HOP-62 NSCLC,1.9 µM
same,TGI,HOP-62 NSCLC,3.93 µM
same,GI50,HOP-92 NSCLC,1.82 µM
same,TGI,HOP-92 NSCLC,5.85 µM
same,GI50,HS 578T breast,1.91 µM
same,TGI,HS 578T breast,4.96 µM
same,GI50,IGROV1 ovarian,2.06 µM
same,TGI,IGROV1 ovarian,6.07 µM
same,GI50,K-562 leukemia,1.59 µM
same,TGI,K-562 leukemia,5.58 µM
same,GI50,KM12 colon,1.36 µM
same,TGI,KM12 colon,2.87 µM
same,GI50,LOX IMVI melanoma,1.43 µM
same,TGI,LOX IMVI melanoma,2.78 µM
same,GI50,M14 melanoma,1.74 µM
same,TGI,M14 melanoma,3.63 µM
same,GI50,MCF7 breast,2.51 µM
same,TGI,MCF7 breast,8.28 µM
same,GI50,MDA-MB-231 breast,1.76 µM
same,TGI,MDA-MB-231 breast,3.82 µM
same,GI50,MDA-MB-435,1.6 µM
same,TGI,MDA-MB-435,3.54 µM
same,GI50,NCI-H226 lung,2.14 µM
same,TGI,NCI-H226 lung,7.22 µM
same,GI50,NCI-H23 lung,1.98 µM
same,TGI,NCI-H23 lung,5.79 µM
same,GI50,NCI-H460 lung,1.71 µM
same,TGI,NCI-H460 lung,3.62 µM
same,GI50,NCI/ADR-RES ovarian,2.12 µM
same,TGI,NCI/ADR-RES ovarian,7.85 µM
same,GI50,OVCAR-3 ovarian,1.57 µM
same,TGI,OVCAR-3 ovarian,3.59 µM
same,GI50,OVCAR-4 ovarian,2.34 µM
same,TGI,OVCAR-4 ovarian,8.45 µM
same,GI50,OVCAR-5 ovarian,1.94 µM
same,TGI,OVCAR-5 ovarian,5.68 µM
same,GI50,OVCAR-8 ovarian,2.03 µM
same,TGI,OVCAR-8 ovarian,7.83 µM
same,GI50,PC-3 prostate,1.67 µM
same,TGI,PC-3 prostate,> 100 µM
same,GI50,RXF 393 renal,1.54 µM
same,TGI,RXF 393 renal,4.41 µM
same,GI50,SF-268 CNS,1.93 µM
same,TGI,SF-268 CNS,5.01 µM
same,GI50,SF-539 CNS,1.76 µM
same,TGI,SF-539 CNS,3.98 µM
same,GI50,SK-MEL-28 melanoma,1.88 µM
same,TGI,SK-MEL-28 melanoma,3.9 µM
same,GI50,SK-MEL-5 melanoma,1.56 µM
same,TGI,SK-MEL-5 melanoma,2.94 µM
same,GI50,SK-OV-3 ovarian,2.53 µM
same,TGI,SK-OV-3 ovarian,6.43 µM
same,GI50,SN12C renal,2.6 µM
same,TGI,SN12C renal,8.82 µM
same,GI50,SNB-19 CNS,2.53 µM
same,TGI,SNB-19 CNS,8.13 µM
same,GI50,SNB-75 CNS,1.28 µM
same,TGI,SNB-75 CNS,4.03 µM
same,GI50,SW-620 colon,1.82 µM
same,TGI,SW-620 colon,3.58 µM
same,GI50,T-47D breast,2.66 µM
same,TGI,T-47D breast,7.37 µM
same,GI50,TK-10 renal,3.06 µM
same,TGI,TK-10 renal,13.2 µM
same,GI50,U251 CNS,1.21 µM
same,TGI,U251 CNS,2.62 µM
same,GI50,UACC-257 melanoma,1.64 µM
same,TGI,UACC-257 melanoma,3.69 µM
same,GI50,UACC-62 melanoma,1.77 µM
same,TGI,UACC-62 melanoma,3.75 µM
same,GI50,UO-31 renal,1.44 µM
same,TGI,UO-31 renal,3.13 µM
